According to patent US20240208953A1, “"Cyclopenta[c]pyrrol Negative Allosteric Modulators of NR2B"” (Novartis AG, priority 2021, published 2024):

How the values were obtained:
hERG = hERG (Homo sapiens (Human), UniProt Q12809); assay: hERG Qpatch assay; format: cell-based
Description: Example 3. hERG Qpatch Assay Protocol
This assay was performed by the method described in Skepper et al., J. Med. Chem. 2020, 63, 7773-7816:
hERG expressing cell lines were produced in-house at Novartis using CHO-K1 T-Rex inducible plasmid system (Invitrogen) as described previously (Cao et al., Assay Drug Dev. Technol. 2010, 8, 766-780). Cell lines were maintained in Ham's F12 nutrient mixture containing 10% FBS, blasticidin ([…]; InvivoGen), hygromycin B ([…]; InvivoGen), Zeocin ([…], Invitrogen), and neomycin ([…], Invitrogen) using SelecT automated cell culture system (TAP Biosystems, Cambridge, U.K.). hERG and hCav1.2 channels expression was induced with tetracycline (0.25-1 μg/mL, Invitrogen) at least 24 h prior to the experiment.
hERG currents were recorded using the Qpatch automated patch clamp systems (Sophion Bioscience Inc., North Brunswick, NJ) in the whole (single) cell configuration. hERG expressing CHO-K1 cells were harvested with Detachin (Genlantis) and stored in the modified serum-free SFM-2 media (Life Technologies) at room temperature. The extracellular solution contained (in mM) NaCl (145), KCl (4), MgCl2 (1), CaCl2 (2), and HEPES (10), pH 7.4, with NaOH. The intracellular solution contained KCl (135), MgCl2 (1.75), CaCl2 (5.4), EGTA (10), K2-ATP (4), and HEPES (10), pH 7.2, with KOH. After whole cell configuration was achieved, the cell was held at −90 mV, and a 0.1 s pulse to −50 mV was delivered to measure the leaking current, which was subtracted from the tail current online. Then the cell was depolarized to +20 mV for 4 s (prepulse), followed by a 4 s test pulse to −50 mV to reveal the hERG tail current. To monitor changes in the current amplitude, this voltage protocol was repeatedly applied every 20 s. Test compounds were first diluted in DMSO for six dose-response experiments and then dissolved in the extracellular solution using Freedom EVO liquid handling robotic system (Tecan, Männedorf, Switzerland). The final DMSO concentration in samples was 0.3% v/v. Amitriptyline (Sigma) was tested as a positive control. Data were analyzed using in-house developed MatLab-based program (MathWorks, Natick, MA

P-glycoprotein (P-gp) = P-glycoprotein (P-gp) (Homo sapiens (Human), UniProt P08183); assay: MDCK-MDR1 permeability / efflux assay; format: in vitro ADME; conditions: for efflux ratio at 120 min, 10 μM: dog, MDCK-MDR1, pH 7.4, efflux ratio, read-out: MDCK-MDR1 ER; for MDCK-MDR1 ER: efflux ratio, 10 μM, 120 min
Chain of P-glycoprotein (P-gp) (P08183 whole entry): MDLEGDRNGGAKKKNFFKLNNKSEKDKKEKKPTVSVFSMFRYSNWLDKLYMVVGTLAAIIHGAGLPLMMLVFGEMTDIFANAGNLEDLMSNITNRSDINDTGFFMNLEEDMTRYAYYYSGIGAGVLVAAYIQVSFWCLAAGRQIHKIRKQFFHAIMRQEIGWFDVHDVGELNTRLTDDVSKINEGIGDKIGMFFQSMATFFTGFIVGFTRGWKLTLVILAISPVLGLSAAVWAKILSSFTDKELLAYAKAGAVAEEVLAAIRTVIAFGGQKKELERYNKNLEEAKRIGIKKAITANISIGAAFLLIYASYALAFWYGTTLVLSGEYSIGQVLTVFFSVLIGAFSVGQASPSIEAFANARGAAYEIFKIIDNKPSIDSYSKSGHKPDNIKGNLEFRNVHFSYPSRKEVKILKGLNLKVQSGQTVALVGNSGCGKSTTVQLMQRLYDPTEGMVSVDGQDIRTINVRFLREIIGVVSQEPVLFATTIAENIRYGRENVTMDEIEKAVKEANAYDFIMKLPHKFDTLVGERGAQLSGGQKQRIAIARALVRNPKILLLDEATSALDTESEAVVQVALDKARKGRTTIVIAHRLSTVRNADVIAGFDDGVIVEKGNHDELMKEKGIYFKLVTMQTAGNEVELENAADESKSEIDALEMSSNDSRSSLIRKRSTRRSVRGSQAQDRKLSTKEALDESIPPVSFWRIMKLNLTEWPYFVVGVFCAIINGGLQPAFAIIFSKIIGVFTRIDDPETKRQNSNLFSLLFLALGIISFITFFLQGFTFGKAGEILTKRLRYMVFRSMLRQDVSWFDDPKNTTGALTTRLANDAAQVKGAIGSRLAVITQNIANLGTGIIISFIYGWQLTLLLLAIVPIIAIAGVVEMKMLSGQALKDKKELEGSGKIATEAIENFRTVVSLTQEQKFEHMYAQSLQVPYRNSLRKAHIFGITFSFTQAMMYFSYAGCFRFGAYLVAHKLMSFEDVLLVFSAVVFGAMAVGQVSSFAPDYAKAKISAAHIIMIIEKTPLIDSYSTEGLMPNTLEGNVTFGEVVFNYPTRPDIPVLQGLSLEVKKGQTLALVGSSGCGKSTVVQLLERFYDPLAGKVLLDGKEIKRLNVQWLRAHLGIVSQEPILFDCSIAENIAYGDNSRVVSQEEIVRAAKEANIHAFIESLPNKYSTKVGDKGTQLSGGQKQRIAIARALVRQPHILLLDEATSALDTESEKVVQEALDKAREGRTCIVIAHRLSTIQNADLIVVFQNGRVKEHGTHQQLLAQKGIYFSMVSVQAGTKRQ
Procedure, shortened: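 MDCK-MDR1 monolayers grown 4 days on Transwells; 10 μM compound in HBSS/10 mM HEPES pH 7.4 with 0.02% BSA, run A→B and B→A for 120 min at 37 °C without shaking. Donor and receiver concentrations by LC-MS/MS; Papp and recovery calculated, efflux ratio from B→A vs A→B.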

NR2B = NR2B (Rattus norvegicus (Rat), UniProt Q00960); assay: NR2B rat cortical neuron calcium influx assay; format: cell-based; conditions: for IC50: rat cortical neurons, glutamate and glycine stimulated calcium influx; for relative potency in the NR2B rat cortical neuron calcium influx assay: comparison within Examples 5A/5B/5C/5D
Chain of NR2B (Q00960 27-1482, other chains not shown): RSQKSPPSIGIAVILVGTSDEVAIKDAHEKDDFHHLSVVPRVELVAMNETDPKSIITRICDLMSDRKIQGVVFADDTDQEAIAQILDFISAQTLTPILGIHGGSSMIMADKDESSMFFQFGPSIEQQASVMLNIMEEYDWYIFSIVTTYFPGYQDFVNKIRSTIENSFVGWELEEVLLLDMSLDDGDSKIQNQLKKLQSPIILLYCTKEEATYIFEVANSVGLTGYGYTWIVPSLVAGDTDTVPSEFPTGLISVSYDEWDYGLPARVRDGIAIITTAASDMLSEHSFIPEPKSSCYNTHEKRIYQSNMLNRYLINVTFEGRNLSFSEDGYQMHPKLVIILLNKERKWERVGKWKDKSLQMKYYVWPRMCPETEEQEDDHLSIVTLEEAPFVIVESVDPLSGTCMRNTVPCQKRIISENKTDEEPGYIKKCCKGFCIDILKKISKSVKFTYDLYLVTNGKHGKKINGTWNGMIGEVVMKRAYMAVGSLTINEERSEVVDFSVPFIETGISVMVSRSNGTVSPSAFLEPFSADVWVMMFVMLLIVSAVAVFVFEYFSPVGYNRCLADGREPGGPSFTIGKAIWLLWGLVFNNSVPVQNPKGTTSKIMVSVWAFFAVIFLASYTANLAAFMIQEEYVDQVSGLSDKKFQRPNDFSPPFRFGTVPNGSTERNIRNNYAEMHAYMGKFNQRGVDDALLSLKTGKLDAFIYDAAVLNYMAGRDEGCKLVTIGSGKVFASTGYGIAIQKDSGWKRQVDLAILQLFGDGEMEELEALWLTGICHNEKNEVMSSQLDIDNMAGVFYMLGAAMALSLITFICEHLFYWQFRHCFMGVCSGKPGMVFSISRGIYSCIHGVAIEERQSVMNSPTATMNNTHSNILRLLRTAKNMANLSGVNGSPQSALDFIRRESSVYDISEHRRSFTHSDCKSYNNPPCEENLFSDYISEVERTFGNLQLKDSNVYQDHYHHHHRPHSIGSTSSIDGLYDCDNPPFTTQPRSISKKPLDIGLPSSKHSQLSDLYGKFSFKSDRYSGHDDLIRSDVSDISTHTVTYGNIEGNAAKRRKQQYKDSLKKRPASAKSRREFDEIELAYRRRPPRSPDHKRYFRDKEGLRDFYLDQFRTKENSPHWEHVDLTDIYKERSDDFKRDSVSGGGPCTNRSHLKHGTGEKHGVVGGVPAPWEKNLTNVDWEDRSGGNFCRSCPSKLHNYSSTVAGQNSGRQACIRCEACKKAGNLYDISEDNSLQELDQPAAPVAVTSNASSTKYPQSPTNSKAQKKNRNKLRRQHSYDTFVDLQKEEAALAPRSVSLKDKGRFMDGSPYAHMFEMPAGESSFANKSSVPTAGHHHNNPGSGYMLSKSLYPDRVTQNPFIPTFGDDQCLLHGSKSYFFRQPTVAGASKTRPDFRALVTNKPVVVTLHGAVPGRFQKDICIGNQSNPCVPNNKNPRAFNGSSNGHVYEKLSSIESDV
Procedure, shortened: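 Primary cortical neurons from E18 Sprague Dawley rat embryos, cultured 2 days, were loaded with Calcium 6 dye in 1.8 mM Ca-HBSS and preincubated with compound 2 h at 37° C. Glutamate plus glycine was added and fluorescence read for 2 min as peak/baseline ratio; duplicate dose-response curves gave IC50 (μM) and maximal inhibition.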

[1] = Table 2, hERG expressing CHO-K1 cells

Chain of hERG (Q12809 whole entry): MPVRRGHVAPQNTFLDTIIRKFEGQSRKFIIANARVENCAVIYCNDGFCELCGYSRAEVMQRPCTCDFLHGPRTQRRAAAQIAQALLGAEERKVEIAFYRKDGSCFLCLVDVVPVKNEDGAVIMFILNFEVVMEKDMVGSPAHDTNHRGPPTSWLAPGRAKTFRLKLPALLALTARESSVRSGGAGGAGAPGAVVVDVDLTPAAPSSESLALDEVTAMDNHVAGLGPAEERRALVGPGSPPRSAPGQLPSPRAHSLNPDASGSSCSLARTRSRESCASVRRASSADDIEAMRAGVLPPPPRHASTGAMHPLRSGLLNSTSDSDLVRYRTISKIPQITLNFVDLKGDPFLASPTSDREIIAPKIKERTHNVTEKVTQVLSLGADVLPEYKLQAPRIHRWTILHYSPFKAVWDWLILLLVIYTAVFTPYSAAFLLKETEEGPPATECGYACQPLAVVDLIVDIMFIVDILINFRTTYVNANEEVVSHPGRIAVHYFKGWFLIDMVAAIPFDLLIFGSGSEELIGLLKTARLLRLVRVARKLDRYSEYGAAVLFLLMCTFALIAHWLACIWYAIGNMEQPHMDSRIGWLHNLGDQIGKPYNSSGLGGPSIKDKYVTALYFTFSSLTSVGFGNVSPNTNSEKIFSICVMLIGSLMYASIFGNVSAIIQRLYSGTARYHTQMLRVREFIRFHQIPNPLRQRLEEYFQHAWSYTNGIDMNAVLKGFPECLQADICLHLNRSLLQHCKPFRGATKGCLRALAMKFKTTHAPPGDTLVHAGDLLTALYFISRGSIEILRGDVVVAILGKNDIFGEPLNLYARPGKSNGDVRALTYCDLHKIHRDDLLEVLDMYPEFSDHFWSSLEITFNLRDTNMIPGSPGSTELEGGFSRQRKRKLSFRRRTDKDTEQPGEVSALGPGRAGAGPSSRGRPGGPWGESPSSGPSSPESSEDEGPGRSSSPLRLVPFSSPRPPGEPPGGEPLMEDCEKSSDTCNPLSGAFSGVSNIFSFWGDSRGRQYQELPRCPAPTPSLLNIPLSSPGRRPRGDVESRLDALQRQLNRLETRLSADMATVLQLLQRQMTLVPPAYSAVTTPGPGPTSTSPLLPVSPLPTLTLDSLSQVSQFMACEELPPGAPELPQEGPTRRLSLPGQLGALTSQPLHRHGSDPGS

Compound	IC50 (hERG; [1]) [nM]	efflux ratio at 120 min, 10 μM (P-glycoprotein (P-gp))	IC50 (NR2B) [nM]	IC50 (hERG; Table 3, matched pairs) [nM]	MDCK-MDR1 ER (P-glycoprotein (P-gp))	relative potency in the NR2B rat cortical neuron calcium influx assay (NR2B)
O=C1Nc2ccc([C@H](O)CN3C[C@H]4C[C@H](Oc5ccccc5)C[C@@]4(O)C3)cc2CS1 (single isomer, unassigned) [Example 14B]	1300	2.06	0.18			
O=C1Nc2c(F)cc([C@H](O)CN3C[C@H]4C[C@H](Oc5ccccc5)C[C@@]4(O)C3)cc2CS1 (single isomer, unassigned) [Example 16B]	200	0.75	0.08			
O=C1Nc2c(F)cc([C@@H](O)CN3C[C@H]4C[C@H](Oc5ccccc5)C[C@@]4(O)C3)cc2CO1 (single isomer, unassigned) [Example 33A]	8200	1.87	4.9			
O[C@H](CN1C[C@H]2C[C@H](Oc3ccccc3F)[C@H](O)[C@@]2(O)C1)c1cnc2[nH]ccc2c1 (single isomer, unassigned) [Example 44B]	15700	7.34	1190			
O=C1CCc2cc([C@@H](O)CN3C[C@H]4C[C@H](Oc5ccccc5)C[C@@]4(O)C3)c(F)cc2N1 (single isomer, unassigned) [Example 10A]	2100	1.11	0.41			
O=c1[nH]c2c(F)cc([C@@H](O)CN3C[C@H]4C[C@H](Oc5ccccc5)C[C@@]4(O)C3)cc2s1 (single isomer, unassigned) [Example 42A]	2200	0.93	0.19			
O=C1CCc2cc(C(O)CN3C[C@H]4C[C@H](Oc5ccccc5F)C[C@@]4(O)C3)ccc2N1 (single isomer, unassigned) [Example 5D]	5900		0.61	5900	1.93	more potent than Examples 5A and 5B
O=C1CCc2cc(C(O)CN3C[C@H]4C[C@H](Oc5ccccc5F)C[C@H]4C3)ccc2N1 (mixture of isomers) [Mixture of two isomers at benzylic position, reference compound]				500		
O=C1CCCc2cc([C@H](O)CN3C[C@H]4C[C@H](Oc5ccccc5)C[C@@]4(O)C3)ccc2N1 (single isomer, unassigned) [Example 7B]	15200	2.07	1.9			
O=C1CCc2cc([C@@H](O)CN3C[C@H]4C[C@H](Oc5ccccc5)C[C@@]4(O)C3)cc(F)c2N1 (single isomer, unassigned) [Example 31A]	7300	1.63	10			
O=C1Nc2ccc([C@@H](O)CN3C[C@H]4C[C@H](Oc5ccccc5)C[C@@]4(O)C3)cc2CO1 (single isomer, unassigned) [Example 28A]	2400	3.32	0.83			
O=c1ccc2cc([C@@H](O)CN3C[C@H]4C[C@H](Oc5ccccc5)C[C@@]4(O)C3)ccc2[nH]1 (single isomer, unassigned) [Example 8A]	2800	3.68	0.8			
O=c1[nH]c2ccc([C@H](O)CN3C[C@H]4C[C@H](Oc5ccccc5F)C[C@@]4(O)C3)cc2s1 (single isomer, unassigned) [Example 18B]	1200		0.012			
O=C1Nc2c(F)cc([C@H](O)CN3C[C@H]4C[C@H](Oc5ccccc5)C[C@@]4(O)C3)cc2CO1 (single isomer, unassigned) [Example 33B]	4900	0.91	3.6			
O=c1[nH]c2ccc([C@@H](O)CN3C[C@H]4C[C@H](Oc5ccccc5)C[C@@]4(O)C3)cc2s1 (single isomer, unassigned) [Example 17A]	200	1.11	0.013			
O=C1CCc2cc([C@@H](O)CN3C[C@H]4C[C@H](Oc5ccccc5)C[C@@]4(O)C3)ccc2N1 [Example 1A, 6-((R)-1-hydroxy-2-((3aS,5S,6aR)-3a-hydroxy-5-phenoxyhexahydrocyclopenta[c]pyrrol-2(1H)-yl)ethyl)-3,4-dihydroquinolin-2(1H)-one]	10700	3.02	0.6			
O[C@@H](CN1C[C@H]2C[C@H](Oc3ccc(F)cc3F)C[C@@]2(O)C1)c1ccc2[nH]ncc2c1 [Example 21]	3600		11		1.94	
O=C1CCc2cc([C@H](O)CN3C[C@H]4C[C@H](Oc5ccccc5F)[C@H](O)[C@@]4(O)C3)cc(F)c2N1 (single isomer, unassigned) [Example 29B]	12500	4.24	11			
O=C1Nc2c(F)cc([C@@H](O)CN3C[C@H]4C[C@H](Oc5ccccc5)C[C@@]4(O)C3)cc2CS1 (single isomer, unassigned) [Example 16A]	400	0.66	0.051			
O=C1CCc2cc(C(O)CN3CC4CC(Oc5ccccc5F)CC4(O)C3)ccc2N1 (stereo in doubt) [Example 5C, 6-((R)-2-((3aR,5R,6aS)-5-(2-fluorophenoxy)-3a-hydroxyhexahydrocyclopenta[c]pyrrol-2(1H)-yl)-1-hydroxyethyl)-3,4-dihydroquinolin-2(1H)-one]	6000	2.07	0.59	6000		more potent than Examples 5A and 5B
O=C1Nc2cc(F)c([C@@H](O)CN3C[C@H]4C[C@H](Oc5ccccc5)C[C@@]4(O)C3)cc2CO1 (single isomer, unassigned) [Example 36A]	5500	4.04	0.49			
O=C1CCc2cc([C@@H](O)CN3C[C@@H]4C[C@@H](Oc5ccccc5)[C@@H](O)[C@]4(O)C3)ccc2N1 [Example 4C, 6-((R)-2-((3aR,4R,5R,6aS)-3a,4-dihydroxy-5-phenoxyhexahydrocyclopenta[c]pyrrol-2(1H)-yl)-1-hydroxyethyl)-3,4-dihydroquinolin-2(1H)-one]		6.75	3050			
O=C1CCc2cc([C@H](O)CN3C[C@H]4C[C@H](Oc5ccccc5)C[C@@]4(O)C3)cc(F)c2N1 (single isomer, unassigned) [Example 31B]	3900		4.8			
O=C1CCc2cc([C@H](O)CN3C[C@@H]4C[C@@H](Oc5ccccc5)[C@@H](O)[C@]4(O)C3)ccc2N1 [Example 4D, 6-((S)-2-((3aR,4R,5R,6aS)-3a,4-dihydroxy-5-phenoxyhexahydrocyclopenta[c]pyrrol-2(1H)-yl)-1-hydroxyethyl)-3,4-dihydroquinolin-2(1H)-one]		6.87	250			
O=C1Cc2cc([C@H](O)CN3C[C@@H]4C[C@@H](Oc5ccccc5)[C@@H](O)[C@]4(O)C3)ccc2N1 [Example 3B]			> 10000		6.36	
O=C1Nc2ccc([C@@H](O)CN3C[C@H]4C[C@H](Oc5ccccc5)C[C@@]4(O)C3)cc2CS1 (single isomer, unassigned) [Example 14A]		1.51	0.011			
O=C1CCc2cc([C@H](O)CN3C[C@@H]4C[C@@H](Oc5c(F)cccc5F)C[C@]4(O)C3)ccc2N1 (single isomer, unassigned) [Example 27D]		2.05	1.4			
